Laboratory results taken from paper PMC6743422, “Preclinical disposition of MGS0274 besylate, a prodrug of a potent group II metabotropic glutamate receptor agonist MGS0008 for the treatment of schizophrenia” (Pharmacology Research & Perspectives, 2019).
Like-named read-outs stand apart in the source and are kept apart here.

Columns and labels:
[1] = design: method as in PMID 25382826, PMID 17228865; conditions: rats; cited from earlier work
[2] = humans, cited from earlier work; for oral bioavailability compared with parent compounds: transportable prodrugs
[3] = tested on: human cryopreserved hepatocytes; test: In vitro metabolite profiling in human cryopreserved hepatocytes; format: in vitro ADME; conditions: human hepatocytes 0.5 million cells/mL, 37°C, 1 h, [14C]MGS0274 besylate 10 μmol/L
Description: (§1) Rat, monkey, or human cryopreserved hepatocytes in Leivovitz L‐15 medium at 0.5 million cells/mL were incubated at 37°C for 1 hour with [^14C]MGS0274 besylate at 10 μmol/L. The reaction was terminated by adding 10% w/v trichloroacetic acid solution, and the resultant mixture was centrifuged. Aliquots of the supernatant were subjected to bioanalysis using high‐performance liquid chromatography equipped with radiochemical flow detection (RI‐HPLC) (see Table S1‐B). Aliquots of the supernatant from unlabeled incubation samples and authentic standards were also injected into a liquid chromatography‐mass spectrometry (LC‐MS) system under the same chromatographic conditions to compare their chromatographic retention times and mass spectral data (see Table S1‐B).

[4] = Hydrolytic activity against MGS0274 in monkey serum and tissue S9 fractions; format: in vitro ADME; conditions: monkey serum
Description: (§2) Rat, monkey, or human serum that had been pre‐incubated for 5 minutes at 37°C was spiked with MGS0274 besylate at 10 μmol/L. After incubation for 5 to 60 minutes, the reaction was terminated by adding acetonitrile/methanol/formic acid (90:10:1, v/v/v) containing [^13C2 ^15N]MGS0008, and the resultant mixture was centrifuged. Tissue S9 fractions with final protein concentrations of 0.25 mg/mL were pre‐incubated for 5 minutes at 37°C, then spiked with MGS0274 besylate at 10 μmol/L. After incubation for 1 to 5 minutes, the reaction was terminated by adding acetonitrile/methanol/formic acid (90:10:1, v/v/v) containing [^13C2 ^15N]MGS0008, and the resultant mixture was centrifuged. Aliquots of the supernatant were subjected to bioanalysis using LC‐MS/MS (see Table S1‐C). The formation rate of MGS0008 from MGS0274 in the reaction mixture was calculated using the following equation: Formation ratenmol/min/mg protein=concentration of MGS0008,nmol/mL/incubation time,min/protein concentration,mg protein/mL

[5] = tested on: rat cryopreserved hepatocytes; test: In vitro metabolite profiling in rat cryopreserved hepatocytes; format: in vitro ADME; conditions: rat hepatocytes 0.5 million cells/mL, 37°C, 1 h, [14C]MGS0274 besylate 10 μmol/L
Description: as §1

[6] = Hydrolytic activity against MGS0274 in rat serum and tissue S9 fractions; format: in vitro ADME; conditions: rat serum
Description: as §2

[7] = Plasma protein binding in human plasma; format: in vitro ADME; conditions: pH 7.4, 0.1, 1, and 10 μg/mL as MGS0274, equilibrium dialysis 5 h, 37°C
Description: (§3) [^14C]MGS0008 was spiked with rat, monkey, or human plasma at final concentrations of 0.1, 1, and 10 μg/mL. The protein binding was evaluated according to a previously published method.11 MGS0274 besylate was spiked with monkey or human plasma at final concentrations of 0.1, 1, and 10 μg/mL as MGS0274, which was placed in a donor compartment of a 96‐well equilibrium dialysis plate (Dialysis Membrane Strips MWCO 12‐14K; HT Dialysis, Gales Ferry, CT). Sodium phosphate buffer (0.05 M, pH7.4) containing sodium chloride (0.07 M) was placed in a reservoir compartment. After incubation for 5 hours at a rate of 100 rpm at 37°C in humidified air‐5% CO2, aliquots of the plasma and dialysate were collected from each compartment, mixed with acetonitrile/methanol (9:1, v/v) containing [^2H4]MGS0274 besylate, and centrifuged. Aliquots of the supernatant were subjected to bioanalysis using liquid chromatography‐tandem mass spectrometry (LC‐MS/MS) (see Table S1‐A). The protein binding (%) was calculated based on the instruction manual of the 96‐well plate.

[8] = tested on: monkey cryopreserved hepatocytes; test: In vitro metabolite profiling in monkey cryopreserved hepatocytes; format: in vitro ADME; conditions: monkey hepatocytes 0.5 million cells/mL, 37°C, 1 h, [14C]MGS0274 besylate 10 μmol/L
Description: as §1

[9] = Hydrolytic activity against MGS0274 in human serum and tissue S9 fractions; format: in vitro ADME
Description: as §2

[10] = Plasma protein binding in monkey plasma; format: in vitro ADME, cynomolgus monkey; conditions: pH 7.4, 0.1, 1, and 10 μg/mL as MGS0274, equilibrium dialysis 5 h, 37°C
Description: as §3

Stability in buffers = format: physicochemical; conditions: pH 1.2 and 6.5 as surrogate for gastrointestinal fluids; data not shown
CYP2B6 mRNA = test: CYP induction in primary cultured cryopreserved human hepatocytes, CYP2B6 mRNA; conditions: positive control phenobarbital 1000 μM
Description: (§4) The primary cultured cryopreserved human hepatocytes were plated in a collagen‐coated 96‐well plate (Becton Dickinson, Franklin Lakes, NJ) with Williams’ Medium E (Invitrogen, Carlsbad, CA) containing Geltrex^TM (Invitrogen) and Maintenance Supplements (Invitrogen) and maintained in humidified air‐5% CO2 at 37°C for 3 days. Then, the cells were cultured for three consecutive 24‐hour treatments with MGS0008 (3‐30 µmol/L), with MGS0274 besylate (3‐30 µmol/L), or with positive controls (omeprazole for CYP1A2 at 50 µmol/L, phenobarbital for CYP2B6 at 1000 µmol/L, or rifampicin for CYP3A4 at 10 µmol/L). The mRNA expression levels of CYP1A2, 2B6, and 3A4 were measured using the real‐time polymerase chain reaction (RT‐PCR) method (7500 Fast RT‐PCR system; Applied Biosystems, Foster City, CA) with TaqMan® Fast Universal PCR Master Mix (probe ID: Hs00167927_m1 for CYP1A2, Hs04183483_g1 for CYP2B6, and Hs00604506_ml for CYP3A4; Applied Biosystems). The fold change in the mRNA expression was calculated using the 2^‐ΔΔCT method.22

[11] = design: method as in PMID 17712352, PMID 11744608; conditions: dogs; cited from earlier work
[12] = tested on: positive and negative symptoms of schizophrenia; design: method as in PMID 17767166; conditions: phase 2 proof-of-concept trial, compared with placebo; cited from earlier work
[13] = design: method as in PMID 17767166; conditions: humans; cited from earlier work
[14] = design: method as in PMID 25382826; conditions: monkeys; cited from earlier work
schizophrenia = tested on: schizophrenia; design: method as in PMID 24772351; conditions: phase 3 clinical trial; cited from earlier work
[15] = design: method as in earlier work; conditions: cited from earlier work
CYP1A2 mRNA = test: CYP induction in primary cultured cryopreserved human hepatocytes, CYP1A2 mRNA; format: in vitro ADME; conditions: positive control omeprazole 50 μM
Description: as §4

For `N[C@@]1(C(=O)O)CS(=O)(=O)[C@H]2[C@H](C(=O)O)[C@H]21` [LY404039], which oral bioavailability [1] is on record?
The oral bioavailability was “high”.

And the oral bioavailability [2]?
The oral bioavailability was “low”.

Which “oral bioavailability compared with parent compounds” value [2] does the source give for `C[C@H](N)C(=O)N[C@@]1(C(=O)O)CC[C@H]2[C@H](C(=O)O)[C@H]21` [LY544344] here?
The value was “improved oral bioavailability”.

Which “metabolite profile of MGS0274” value [3] does the source give for `CC1CCC(C(C)C)C(OC(=O)OC(C)OC(=O)C2C3CC(F)C(N)(C(=O)O)C32)C1` (stereo not drawn) [MGS0274] here?
The value was “nearly and completely hydrolyzed to MGS0008”.

And the stability in serum [4]?
Its stability in serum is “stable”.

And the “metabolite profile of MGS0274” value [5]?
Its value is “nearly and completely hydrolyzed to MGS0008”.

What about the stability in serum [6] of the same molecule?
The stability in serum was “unstable”.

And the fraction unbound at 5 h [7]?
Its fraction unbound at 5 h is 0.039 to 0.043.

And the “metabolite profile of MGS0274” value [8]?
The value was “nearly and completely hydrolyzed to MGS0008”.

And the “Formation rate of MGS0008” value ([9]; human kidney S9 0.25 mg/mL, MGS0274 besylate 10 μmol/L, 37°C, MGS0008 not detected in the reaction mixture)?
The value was “no apparent hydrolytic activity”.

What about the stability in serum ([9]; human serum) of the same molecule?
Its stability in serum is “stable”.

And the fraction unbound at 5 h [10]?
Its fraction unbound at 5 h is 0.065 to 0.076.

What about the stability in buffers (Stability in buffers) of the same molecule?
The stability in buffers was “confirmed”.

Which “Fold change of mRNA expression level CYP2B6” value (CYP2B6 mRNA; hepatocyte lot Hu1487) does the source give for `CCC1(c2ccccc2)C(=O)NC(=O)NC1=O` [phenobarbital, reference compound] here?
Its value is 16.4 fold.

And the “Fold change of mRNA expression level CYP2B6” value (CYP2B6 mRNA; hepatocyte lot Hu8114)?
The value was 35.1 fold.

What about the “Fold change of mRNA expression level CYP2B6” value (CYP2B6 mRNA; hepatocyte lot Hu8123) of the same molecule?
Its value is 45.7 fold.

With `N[C@@]1(C(=O)O)CC[C@H]2[C@H](C(=O)O)[C@H]21` [LY354740, (+)‐2‐aminobicyclo[3.1.0]hexane‐2,6‐dicarboxylic acid] as the molecule, how does the oral bioavailability [2] read?
The oral bioavailability was “low”.

And the oral bioavailability [11]?
The oral bioavailability was “high”.

For `CSCC[C@H](N)C(=O)N[C@@]1(C(=O)O)CS(=O)(=O)[C@H]2[C@H](C(=O)O)[C@H]21` [LY2140023], which “effect on positive and negative symptoms of schizophrenia” value [12] is on record?
Its value is “significantly improved”.

What about the “oral bioavailability compared with parent compounds” value [2] of the same molecule?
The value was “improved oral bioavailability”.

What about the “systemic exposure to the prodrug, relative to its parent compound” value [13] of the same molecule?
The value was “roughly 30%”.

And the “systemic exposure to the prodrug, share of circulating radioactivity” value [14]?
The value was about 15%.

What about the efficacy in schizophrenia (schizophrenia) of the same molecule?
Its efficacy in schizophrenia is “failed to demonstrate efficacy”.

With `CC(C)[C@@H]1CC[C@@H](C)C[C@H]1O` [l‐menthol] as the molecule, how does the acceptable daily intake [15] read?
Its acceptable daily intake is 4 mg/kg.

For `COc1ccc2[nH]c([S+]([O-])Cc3ncc(C)c(OC)c3C)nc2c1` (stereo not drawn) [omeprazole, reference compound], which “Fold change of mRNA expression level CYP1A2” value (CYP1A2 mRNA; hepatocyte lot Hu1487) is on record?
The value was 35.9 fold.

And the “Fold change of mRNA expression level CYP1A2” value (CYP1A2 mRNA; hepatocyte lot Hu8114)?
Its value is 20.7 fold.

What about the “Fold change of mRNA expression level CYP1A2” value (CYP1A2 mRNA; hepatocyte lot Hu8123) of the same molecule?
The value was 59.2 fold.
